IC50 and melting point data for 25 compounds are collected here from US6515124B2, “Dehydroamino acids” (Hoffman-La Roche Inc., priority 2000, dated 2003).

The IC50 is the concentration that gives 50% inhibition. A word on the melting point: it is the temperature, or range, at which the solid turns liquid.

Each structure is given as a SMILES string.

Data set [1] concerns the target T1, LFA-1 binding to immobilized ICAM-1 (Homo sapiens, UniProt P05107+P20701).
T1 construct: made in house; host or cells: transfected 293 cells (LFA-1)
Nature of the data set: LFA-1/ICAM-1 Protein-Protein Assay (solid-phase ELISA). The note with it: 5dICAM-Ig coated plates, membrane-bound LFA-1 from transfected 293 cells. How it is done:
LFA-1/ICAM-1 Protein-Protein Assay
LFA-1/ICAM-1 antagonist activity, defined as the ability to block LFA-1 binding to immobilized ICAM-1, was quantitated using a solid-phase ELISA. Typically, fusion protein consisting of the entire extracellular domain of human ICAM-1 and the Fc domain of human IgG (5dICAM-Ig) was coated onto 96-well microtiter plates (0.15 μg in 100 μL PBS) overnight at 4° C. The plates were then blocked with 150 μL of 1% BSA/1 mM MnCl2/0.14 M NaCl/20 mM HEPES, pH 7.2 for 1 h at 37° C. and washed 3 times (150 μL each) with Wash Buffer (50 mM Tris, pH 7.4/100 mM NaCl/1 mM MnCl2/0.05% Tween 20). Stock solutions (100 μM in 100% DMSO) of test compounds were diluted 50 fold with 150 μL of Binding Buffer (0.05% BSA/0.05% Tween 20/1 mM MnCl2/0.14 M NaCl/20 mM HEPES, pH 7.2) plus 10% DMSO. A series of 1:4 dilutions were performed to achieve a concentration range of 0.12 nM-2 μM. Fifty μL per well of each dilution was added to the ICAM-1 coated plates, followed by 50 μL per well of membrane-bound LFA-1 (280 ng/mL in Binding Buffer) derived from transfected 293 cells. The plates were shaken vigorously for 1 min (room temperature) and gently for 2 h (37° C.). After incubation, the plates were washed 3 times (150 μL each) with Wash Buffer. Mouse anti-human integrin β2 monoclonal antibody was added (100 μL/well, 1 μg/ml in Binding Buffer) and allowed to incubate for 1 h (37° C.) with gentle agitation. The plates were then washed 3 times with Wash Buffer. HRP-conjugated goat anti-mouse IgG (100 μL/well, 1:1500 dilution in Binding Buffer) was added to each well, followed by incubation for 1 h (37° C.) and concluded by three washes (150 μL each) with Wash Buffer. TMB solution (100 μL per well) was added for color development (10 min). The reaction was stopped by the addition of 100 μL of 1M H3PO4 to each well. The plates were then read at 450 nm.
For orientation: An ELISA detects its analyte on a solid surface through an enzyme-linked reagent.

Data set [2] concerns T lymphocyte proliferation (murine spleen cells). Description: Mixed Lymphocyte Reaction (MLR), one-way. The class given is cell-based, mice. The note with it: C57B1/6 spleen cells with irradiated BALB/c spleen cells, tritiated thymidine incorporation, 3 days. An excerpt:
Mixed Lymphocyte Reaction (MLR)
Admixture of murine spleen cells from two different inbred strains of mice induces proliferation of T lymphocytes. The magnitude of T cell proliferation depends on the extent of disparity in the major histocompatibility antigens between the two strains. Splenic T lymphocytes from both strains proliferate due to alloantigen recognition, a process for which the interaction of ICAM-1 on antigen-presenting cells with LFA-1 on lymphocytes is necessary. The ability of antagonists to inhibit T lymphocyte proliferation following recognition of alloantigens was assessed in a one-way MLR, where cells from one strain were irradiated to permit measurement of the proliferative response of cells from the other strain. Spleen cells were washed three times in tissue culture medium (TCM; see below). Fifty microliters of a spleen cell suspension (prepared at 10×10^6 cells/ml in TCM) obtained from C57B1/6 mice were added to an equal number of lethally-irradiated (2000 rads) spleen cells obtained from BALB/c mice in a 96-well U-bottom tissue culture plate (Costar, 3799). One hundred microliters of serial dilutions of antagonists or TCM were added to the spleen cell mixture. The total volume in each well was 200 μL. TCM was RPMI1640 containing 10% heat-inactivated fetal bovine serum, […] L-glutamine, 100 Units/ml each of penicillin and streptomycin and 5×10^−5 M 2-mercaptoethanol. Dilutions of antagonists were prepared in TCM. Plates were incubated in 5% CO2 for 3 days. On the third day, 0.5 μCi of tritiated thymidine (10 μCi/mL) was added to all the wells. Cells were harvested 6 h later on a 96-well plate harvester and the amount of tritiated thymidine incorporated was assessed in a liquid scintillation counter.

Setting [3] is: Mus musculus, T-lymphocyte, light or radiation study, 72 h.

T1 sequence (P20701 26-1170): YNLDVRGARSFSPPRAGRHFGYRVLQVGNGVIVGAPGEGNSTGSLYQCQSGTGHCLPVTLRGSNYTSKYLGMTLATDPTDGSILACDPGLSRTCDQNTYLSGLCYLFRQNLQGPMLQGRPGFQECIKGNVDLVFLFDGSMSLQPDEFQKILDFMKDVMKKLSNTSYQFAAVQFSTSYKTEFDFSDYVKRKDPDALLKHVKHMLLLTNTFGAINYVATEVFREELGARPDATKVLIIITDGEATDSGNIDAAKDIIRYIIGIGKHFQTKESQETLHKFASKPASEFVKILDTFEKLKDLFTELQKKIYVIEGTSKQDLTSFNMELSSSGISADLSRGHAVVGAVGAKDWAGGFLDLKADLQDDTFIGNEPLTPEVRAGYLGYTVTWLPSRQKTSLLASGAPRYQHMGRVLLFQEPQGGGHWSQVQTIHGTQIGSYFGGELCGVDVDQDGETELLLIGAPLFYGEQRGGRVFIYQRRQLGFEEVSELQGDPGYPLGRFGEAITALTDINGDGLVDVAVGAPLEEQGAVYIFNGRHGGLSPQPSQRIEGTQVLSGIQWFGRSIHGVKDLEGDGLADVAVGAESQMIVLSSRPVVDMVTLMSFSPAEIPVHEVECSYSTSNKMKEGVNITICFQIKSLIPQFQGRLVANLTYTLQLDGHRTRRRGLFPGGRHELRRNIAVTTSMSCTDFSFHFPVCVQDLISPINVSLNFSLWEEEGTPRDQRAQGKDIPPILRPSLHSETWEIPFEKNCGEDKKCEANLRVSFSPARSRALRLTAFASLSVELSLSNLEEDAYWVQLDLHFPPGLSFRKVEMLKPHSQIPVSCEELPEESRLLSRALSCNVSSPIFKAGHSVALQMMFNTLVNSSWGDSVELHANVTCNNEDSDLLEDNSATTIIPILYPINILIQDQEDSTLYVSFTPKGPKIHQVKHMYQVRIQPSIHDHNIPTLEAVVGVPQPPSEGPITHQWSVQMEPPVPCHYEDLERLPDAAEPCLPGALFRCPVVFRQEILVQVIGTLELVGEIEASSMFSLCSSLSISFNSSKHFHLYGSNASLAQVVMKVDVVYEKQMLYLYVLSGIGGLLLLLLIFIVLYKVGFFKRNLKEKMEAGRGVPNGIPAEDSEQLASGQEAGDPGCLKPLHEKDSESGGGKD
T1 sequence (P05107 23-769): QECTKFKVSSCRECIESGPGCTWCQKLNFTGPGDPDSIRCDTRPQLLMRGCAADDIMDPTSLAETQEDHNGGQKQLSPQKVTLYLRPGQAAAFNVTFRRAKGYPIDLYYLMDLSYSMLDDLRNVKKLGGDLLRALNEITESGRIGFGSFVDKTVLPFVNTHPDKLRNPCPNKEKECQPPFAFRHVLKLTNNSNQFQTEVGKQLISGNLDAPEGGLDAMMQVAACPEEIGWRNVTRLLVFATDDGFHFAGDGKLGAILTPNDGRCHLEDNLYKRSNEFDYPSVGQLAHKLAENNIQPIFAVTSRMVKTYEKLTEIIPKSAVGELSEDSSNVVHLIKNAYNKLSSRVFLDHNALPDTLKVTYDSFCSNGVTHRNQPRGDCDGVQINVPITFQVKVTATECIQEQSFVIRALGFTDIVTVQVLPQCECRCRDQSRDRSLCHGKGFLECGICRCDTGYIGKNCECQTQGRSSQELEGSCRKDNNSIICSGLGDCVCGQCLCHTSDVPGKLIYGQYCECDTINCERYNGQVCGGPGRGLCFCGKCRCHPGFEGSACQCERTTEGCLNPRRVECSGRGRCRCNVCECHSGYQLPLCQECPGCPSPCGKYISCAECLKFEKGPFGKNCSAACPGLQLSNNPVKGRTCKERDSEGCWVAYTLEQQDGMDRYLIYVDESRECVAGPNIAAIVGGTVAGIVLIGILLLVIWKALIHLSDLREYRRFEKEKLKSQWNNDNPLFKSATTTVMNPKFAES

Consider `NS(=O)(=O)c1ccc(/C=C(\NC(=O)c2ccc(C(=O)NCc3cccc(O)c3)cc2Cl)C(=O)O)cc1` [Example 323, (Z)-3-(4-Aminosulfonylphenyl)-2-[[2-chloro-4-[[(3-hydroxybenzyl)amino]carbonyl]benzoyl]amino]propenoic Acid], for which the values for the IC50 in data set [1] and in data set [2] (setting [3]) were 0.84 nM and 230 nM, respectively.

Consider `O=C(O)/C(=C/c1cccnc1)NC(=O)c1ccc(C(=O)NCc2cccc(O)c2)cc1Br` [Example 279], for which the IC50 in data set [1] was determined as 6.2 nM; in data set [2] (setting [3]), 1300 nM.

Take `O=C(O)/C(=C/c1csc2ccccc12)NC(=O)c1ccc(C(=O)NCc2cccc(O)c2)cc1Br` [Example 264]: the figures for the IC50 in data set [1] and in data set [2] (setting [3]) were 4.2 nM and 13000 nM, respectively.

`O=C(O)/C(=C/c1ccccc1O)NC(=O)c1ccc(C(=O)NCc2cccc3[nH]ccc23)cc1Cl` [Example 309]: the 50% inhibitory concentration (IC50) turned out to be 18.7 nM in data set [1] and 14500 nM in data set [2] (setting [3]).

On to `Cc1nc(C)c(/C=C(\NC(=O)c2c(C)cc(C(=O)NCc3cc(F)cc(F)c3)cc2C)C(=O)O)s1` [Example 254], for which the 50% inhibitory concentration (IC50) stood at 110 nM in data set [1] and 95000 nM in data set [2] (setting [3]).

Turning to `O=C(O)/C(=C/c1cnc(N2CCOCC2)s1)NC(=O)c1ccc(C(=O)NCc2cccc(O)c2)cc1Br` [Example 261], the 50% inhibitory concentration (IC50) in data set [1] was 39.6 nM; in data set [2] (setting [3]), 26000 nM.

Take `Cc1cc(C(=O)NCc2cccc(O)c2)ccc1C(=O)N/C(=C\c1cnc2ccccc2c1)C(=O)O` [Example 312]: the values for the concentration for half-maximal inhibition (IC50) in data set [1] and in data set [2] (setting [3]) were 4.7 nM and 990 nM, respectively.

With `O=C(O)/C(=C/c1ccccc1)NC(=O)c1ccc(C(=O)NCc2cccc3[nH]ccc23)cc1Cl` [Example 306], the results for the concentration for half-maximal inhibition (IC50) in data set [1] and in data set [2] (setting [3]) were 10.4 nM and 13800 nM, respectively.

Turning to `Cc1cc(C(=O)NCc2cccc(O)c2)cc(Cl)c1C(=O)N/C(=C\c1ccccc1)C(=O)O` [Example 293, (Z)-2-[[2-Chloro-4-[[(3-hydroxybenzyl)amino]carbonyl]-6-methylbenzoyl]amino]-3-phenylpropenoic Acid], the half-inhibitory concentration (IC50) came to 1.29 nM in data set [1] and 7100 nM in data set [2] (setting [3]).

`O=C(O)/C(=C/c1ccccc1)NC(=O)c1ccc(C(=O)NCc2cccc(O)c2)cc1Cl` [Example 282]: the concentration for half-maximal inhibition (IC50) in data set [1] came to 4.46 nM; in data set [2] (setting [3]), 1900 nM.

As to `O=C(O)/C(=C/c1cccc2ccccc12)NC(=O)c1ccc(C(=O)NCc2cccc(O)c2)cc1Br` [Example 270], the values for the IC50 in data set [1] and in data set [2] (setting [3]) were 20.3 nM and 20000 nM, respectively.

`C[C@@H](NC(=O)c1cc(Cl)c(C(=O)N/C(=C\c2cnc3ccccc3c2)C(=O)O)c(Cl)c1)c1cccc2ccccc12` [Example 252]: the IC50 amounted to 2.68 nM in data set [1] and 2500 nM in data set [2] (setting [3]).

For the compound `Cc1nc(C)c(/C=C(\NC(=O)c2ccc(C(=O)NCc3cccc(O)c3)cc2Br)C(=O)O)s1` [Example 258], the IC50 in data set [1] worked out at 2.33 nM; in data set [1] (mono sodium salt), 2.01 nM; in data set [2] (listed as 258^b), 2740 nM; in data set [2] (setting [3]) it was 2050 nM.

As to `Cc1cc(C(=O)NCc2cccc(O)c2)cc(Cl)c1C(=O)N/C(=C\c1ccc2[nH]nnc2c1)C(=O)O` [Example 291, (Z)-3-(1H-Benzotriazol-5-yl)-2-[[2-chloro-4-[[(3-hydroxybenzyl)amino]carbonyl]-6-methylbenzoyl]amino]propenoic Acid], the results for the IC50 in data set [1] and in data set [2] (setting [3]) were 0.4 nM and 515 nM, respectively.

Take `CCc1nc(C)c(/C=C(\NC(=O)c2ccc(C(=O)NCc3cccc(O)c3)cc2Cl)C(=O)O)s1` [Example 304, (Z)-2-[[2-Chloro-4-[[(3-hydroxybenzyl)amino]carbonyl]benzoyl]amino]-3-(2-ethyl-4-methylthiazole-5-yl)propenoic Acid]: the melting point is greater than 200 °C. For the same compound, the IC50 in data set [1] was 3 nM. The compound also registered an IC50 in data set [2] (setting [3]) of 2100 nM.

For `O=C(O)/C(=C/c1cnc[nH]1)NC(=O)c1ccc(C(=O)NCc2cccc(O)c2)cc1Br` [Example 278], the IC50 in data set [1] worked out at 2 nM; in data set [2] (setting [3]), 1450 nM.

Turning to `Cc1nc(C(C)C)sc1/C=C(\NC(=O)c1ccc(C(=O)NCc2cccc(O)c2)cc1Cl)C(=O)O` [Example 301, 2-[[2-Chloro-4-[[(3-hydroxybenzyl)amino]carbonyl]benzoyl]amino]-3-[2-(1-methylethyl)-4-methylthiazol-5-yl]propenoic Acid], the IC50 in data set [1] came to 3.03 nM; in data set [2] (setting [3]), 4250 nM.

For `Cc1nc(C)c(/C=C(\NC(=O)c2ccc(C(O)CCc3cccc(O)c3)cc2Cl)C(=O)O)s1` (racemic) [Example 297, rac.-(Z)-2-[[2-Chloro-4-[1-hydroxy-3-(3-hydroxyphenyl)propan-1-yl]benzoyl]amino]-3-(2,4-dimethylthiazol-5-yl)propenoic Acid], the values for the concentration for half-maximal inhibition (IC50) in data set [1] and in data set [2] (setting [3]) were 5.96 nM and 5700 nM, respectively.

Regarding `O=C(O)/C(=C/c1cnc2ccccc2c1)NC(=O)c1ccc(C(=O)NCc2cccc(O)c2)cc1Cl` [Example 283], the values for the 50% inhibitory concentration (IC50) in data set [1] and in data set [2] (setting [3]) were 0.79 nM and 370 nM, respectively.

For `O=C(O)/C(=C/c1cnc2ccccc2c1)NC(=O)c1ccc(C(=O)NCc2cccc(O)c2)cc1Br` [Example 277], the 50% inhibitory concentration (IC50) is 0.53 nM in data set [1] and 356 nM in data set [2] (setting [3]).

On to `Cc1cc(C(=O)N[C@H](C)c2cccc3ccccc23)cc(C)c1C(=O)N/C(=C\c1ccccc1)C(=O)O` [Example 237], for which the IC50 in data set [1] came out at 27 nM; in data set [2] (setting [3]), 20000 nM.

Take `Cc1noc(C)c1/C=C(\NC(=O)c1ccc(C(=O)NCc2cccc(O)c2)cc1Br)C(=O)O` [Example 281]: the IC50 in data set [1] stood at 244 nM; in data set [2] (setting [3]) it was 14500 nM.

Take `Nc1cccc(CNC(=O)c2ccc(C(=O)N/C(=C\c3cnc4ccccc4c3)C(=O)O)c(Br)c2)c1` [Example 322]: the results for the half-maximal inhibitory concentration (IC50) in data set [1] and in data set [2] (setting [3]) were 1.74 nM and 4450 nM, respectively.

`O=C(O)/C(=C/c1ccc2ccccc2c1)NC(=O)c1ccc(C(=O)NCc2cccc(O)c2)cc1Br` [Example 274]: the figures for the IC50 in data set [1] and in data set [2] (setting [3]) were 0.62 nM and 1650 nM, respectively.

Turning to `O=C(O)/C(=C/c1cnc2ccccc2c1)NC(=O)c1ccc(C(=O)NCc2cccc3[nH]ccc23)cc1Br` [Example 255], the IC50 in data set [1] is 5.82 nM; in data set [2] (setting [3]), 14800 nM.
